Measured values as given in US20180099931A1 (AbbVie S.à.r.l., priority 2016, published 2018).
pEC50: −log10 of the molar value. Where two headings read alike, the source gives them in different places.

Molecular target: T1, F508delCFTR (Homo sapiens, UniProt P13569, DEL508-508)
T1 construct: expressed in transfected cells; host or cells: CFBE41o- human lung-derived epithelial cells (CFBE4lo-F508delCFTR-HRP), doxycycline-inducible
Assay: Cell Surface Expression-Horse Radish Peroxidase (CSE-HRP) Assay;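 on Maximum % activity (with co-corrector): co-corrector and positive control are both the same reference corrector at 2 µM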;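 on Maximum % activity (without co-corrector): percent of the 2 µM on-plate positive control corrector response above DMSO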
Assay type: cell-based
Settings: for Maximum % activity (with co-corrector) / Emax: maximum at any tested concentration, normalized to on-plate positive control; for Emax: read-out: Maximum % activity (without co-corrector)

[1] = test compound without co-corrector, read-out: EC50 (without co-corrector)
[2] = with co-corrector (2 μM of 3-[(2R,4R)-4-({[1-(2,2-difluoro-1,3-benzodioxol-5-yl)cyclopropyl]carbonyl}amino)-7-methoxy-3,4-dihydro-2H-chromen-2-yl]benzoic acid), read-out: EC50 (with co-corrector)
[3] = test compound without co-corrector
[4] = with co-corrector (2 μM of 3-[(2R,4R)-4-({[1-(2,2-difluoro-1,3-benzodioxol-5-yl)cyclopropyl]carbonyl}amino)-7-methoxy-3,4-dihydro-2H-chromen-2-yl]benzoic acid)
[5] = CSE-HRP, test compound without co-corrector, read-out: EC50 (without co-corrector)
[6] = CSE-HRP, with co-corrector (2 μM of 3-[(2R,4R)-4-({[1-(2,2-difluoro-1,3-benzodioxol-5-yl)cyclopropyl]carbonyl}amino)-7-methoxy-3,4-dihydro-2H-chromen-2-yl]benzoic acid), read-out: EC50 (with co-corrector)
[7] = CSE-HRP, with co-corrector (2 μM)

T1 sequence (P13569 with tags, fused parts or gaps DEL508-508): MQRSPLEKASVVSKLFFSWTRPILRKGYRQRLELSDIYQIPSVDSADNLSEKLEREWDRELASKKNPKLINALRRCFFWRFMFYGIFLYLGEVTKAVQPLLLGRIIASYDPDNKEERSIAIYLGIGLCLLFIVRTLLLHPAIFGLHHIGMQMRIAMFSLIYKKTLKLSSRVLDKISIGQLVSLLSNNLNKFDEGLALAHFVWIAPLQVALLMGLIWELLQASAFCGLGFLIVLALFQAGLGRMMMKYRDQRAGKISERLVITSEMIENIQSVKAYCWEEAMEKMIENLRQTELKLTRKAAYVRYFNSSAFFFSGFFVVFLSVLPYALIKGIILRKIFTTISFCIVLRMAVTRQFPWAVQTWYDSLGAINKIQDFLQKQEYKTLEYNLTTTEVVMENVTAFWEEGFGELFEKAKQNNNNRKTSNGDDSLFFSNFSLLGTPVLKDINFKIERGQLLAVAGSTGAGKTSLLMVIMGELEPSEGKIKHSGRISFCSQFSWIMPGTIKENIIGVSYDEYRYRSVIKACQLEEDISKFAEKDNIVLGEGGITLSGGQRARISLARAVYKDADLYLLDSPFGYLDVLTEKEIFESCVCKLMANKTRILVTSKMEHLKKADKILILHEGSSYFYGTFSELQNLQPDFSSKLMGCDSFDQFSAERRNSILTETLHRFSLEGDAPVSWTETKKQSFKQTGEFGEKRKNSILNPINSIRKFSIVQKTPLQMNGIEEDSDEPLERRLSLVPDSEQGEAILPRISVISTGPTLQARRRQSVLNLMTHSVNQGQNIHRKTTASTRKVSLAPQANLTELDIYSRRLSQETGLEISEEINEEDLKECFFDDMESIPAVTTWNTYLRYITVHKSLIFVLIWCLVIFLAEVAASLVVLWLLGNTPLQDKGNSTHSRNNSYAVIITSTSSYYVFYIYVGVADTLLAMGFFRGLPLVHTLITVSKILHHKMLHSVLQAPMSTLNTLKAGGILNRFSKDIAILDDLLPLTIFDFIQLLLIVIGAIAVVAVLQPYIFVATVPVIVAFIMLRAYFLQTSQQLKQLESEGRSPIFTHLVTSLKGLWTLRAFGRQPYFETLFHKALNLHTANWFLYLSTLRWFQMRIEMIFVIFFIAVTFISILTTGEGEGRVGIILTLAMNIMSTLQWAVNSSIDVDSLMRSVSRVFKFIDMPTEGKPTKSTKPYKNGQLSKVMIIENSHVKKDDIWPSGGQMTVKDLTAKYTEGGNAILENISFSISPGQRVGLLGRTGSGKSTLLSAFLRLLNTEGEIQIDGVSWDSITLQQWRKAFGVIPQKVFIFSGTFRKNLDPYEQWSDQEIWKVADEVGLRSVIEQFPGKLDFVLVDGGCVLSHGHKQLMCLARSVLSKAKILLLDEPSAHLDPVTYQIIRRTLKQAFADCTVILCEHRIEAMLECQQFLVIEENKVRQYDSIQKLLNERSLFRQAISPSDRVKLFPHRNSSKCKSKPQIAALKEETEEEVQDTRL

Compound	pEC50 [1]	pEC50 [2]	Maximum % activity (with co-corrector) (with co-corrector (2 μM))	Emax (without co-corrector)	Emax [3]	Maximum % activity (with co-corrector) [4]	pEC50 [5]	pEC50 [6]	Maximum % activity (with co-corrector) [7]	Emax (CSE-HRP, without co-corrector)
COc1ncc(C2CCC2)cc1CN[C@H]1[C@H](C(C)(C)C)[C@@H](C(=O)O)N(C(=O)C2C3CCCC32)[C@H]1c1cccnc1OC (stereo partly shown) [Example I-243]	5.00 to 6.00	5.00 to 6.00	+++ (≥350)	100 to 200%	–	–	–	–	–	–
COc1cc(C(F)(F)F)ccc1CN[C@H]1[C@H](C(C)(C)C)[C@@H](C(=O)O)N(C(=O)C2CCCCC2)[C@H]1c1ccccc1C [Example 88, (2S,3S,4S,5S)-3-tert-butyl-1-(cyclohexanecarbonyl)-4-({[2-methoxy-4-(trifluoromethyl)phenyl]methyl}amino)-5-(2-methylphenyl)pyrrolidine-2-carboxylic acid]	> 6.00	> 6.00	+++ (≥350)	> 200%	–	–	–	–	–	–
COc1ccc(C(C)(C)C)cc1CN[C@H]1[C@H](C(C)(C)C)[C@@H](C(=O)O)N(C(=O)c2ccc3cccc(F)c3n2)[C@H]1c1ccccc1 [Example I-93]	5.00 to 6.00	5.00 to 6.00	+++ (≥350)	100 to 200%	–	–	–	–	–	–
COc1c(C#N)c(N[C@H]2[C@H](C(C)(C)C)[C@@H](C(=O)O)N(C(=O)C3CCCCC3)[C@H]2c2ccccc2)nc2ccccc12 [Example I-55]	5.00 to 6.00	5.00 to 6.00	+++ (≥350)	< 100%	–	–	–	–	–	–
COc1ccc(C(C)(C)C(F)(F)F)cc1CN[C@H]1[C@H](C(C)(C)C)[C@@H](C(=O)O)N(C(=O)C2CCCCC2)[C@H]1c1ccccc1 [Example I-213]	5.00 to 6.00	5.00 to 6.00	+++ (≥350)	> 200%	–	–	–	–	–	–
CC(C)(C)[C@H]1[C@H](NCc2ccc(F)cc2OCC2CC2)[C@H](c2ccccc2)N(C(=O)C2CCCCC2)[C@@H]1C(=O)O [Example I-50]	5.00 to 6.00	5.00 to 6.00	++ (≥150 and <350)	< 100%	–	–	–	–	–	–
COc1ncc(C(C)(C)C)cc1CN[C@H]1[C@H](C(C)(C)C)[C@@H](C(=O)O)N(C(=O)C2CCCCC2)[C@H]1c1ccccc1 [Example 27, (2S,3S,4S,5S)-3-tert-butyl-4-{[(5-tert-butyl-2-methoxypyridin-3-yl)methyl]amino}-1-(cyclohexanecarbonyl)-5-phenylpyrrolidine-2-carboxylic acid]	5.00 to 6.00	5.00 to 6.00	+++ (≥350)	> 200%	–	–	–	–	–	–
COc1nc(C(C)(C)C)ccc1CN[C@H]1[C@H](C(C)(C)C)[C@@H](C(=O)O)N(C(=O)C2Cc3ccccc3O2)[C@H]1c1ccccc1 (single isomer, unassigned) [Example I-181]	> 6.00	> 6.00	+++ (≥350)	< 100%	–	–	–	–	–	–
COc1ccc(C(F)(F)F)cc1CN[C@H]1[C@H](C(C)(C)C)[C@@H](C(=O)O)N(C(=O)[C@H]2CCC[C@H](OC)C2)[C@H]1c1ccccc1 [Example I-60]	5.00 to 6.00	5.00 to 6.00	+++ (≥350)	> 200%	–	–	–	–	–	–
CC(C)(C)[C@@H]1[C@@H](NCc2ccccc2OC(F)F)[C@@H](c2ccccn2)N(C(=O)C2CCCCC2)[C@H]1C(=O)O (racemic) [Example I-11]	5.00 to 6.00	5.00 to 6.00	++ (≥150 and <350)	< 100%	–	–	–	–	–	–

Further lines, results first:

pEC50 [1]	pEC50 [2]	Maximum % activity (with co-corrector) (with co-corrector (2 μM))	Emax (without co-corrector)	Emax [3]	Maximum % activity (with co-corrector) [4]	pEC50 [5]	pEC50 [6]	Maximum % activity (with co-corrector) [7]	Emax (CSE-HRP, without co-corrector)	Compound
5.00 to 6.00	5.00 to 6.00	–	–	< 100%	+++ (≥350)	–	–	–	–	COc1ncc(C2=CCOCC2)cc1CN[C@H]1[C@H](C(C)(C)C)[C@@H](C(=O)O)N(C(=O)C2CCCCC2)[C@H]1c1ccccc1 [II-349]
5.00 to 6.00	5.00 to 6.00	–	–	< 100%	+++ (≥350)	–	–	–	–	COc1cccc(-c2cc(CN[C@H]3[C@H](C(C)(C)C)[C@@H](C(=O)O)N(C(=O)C4CCCCC4)[C@H]3c3ccccc3)c(OC)cn2)c1 [II-418]
–	–	–	–	–	–	> 6.00	5.00 to 6.00	+++ (≥350)	< 100%	CC(C)(C)[C@H]1[C@H](NCc2cc(Cl)ccc2OC(F)F)[C@H](c2ccccc2)N(C(=O)C2CCCCC2)[C@@H]1C(=O)O [II-107]
> 6.00	> 6.00	–	–	> 200%	+++ (≥350)	–	–	–	–	COc1ccc(C(C)(C)C)cc1CN[C@H]1[C@H](C(C)(C)C)[C@@H](C(=O)O)N(C(=O)C2CCc3ccccc32)[C@H]1c1ccccc1 (stereo partly shown) [II-337]
5.00 to 6.00	> 6.00	–	–	100 to 200%	+++ (≥350)	–	–	–	–	COc1ccc(C(F)(F)F)cc1CN[C@H]1[C@H](C(C)(C)C)[C@@H](C(=O)O)N(C(=O)C2CCc3cc(C)ccc3O2)[C@H]1c1ccccc1 (stereo partly shown) [II-397]
5.00 to 6.00	5.00 to 6.00	–	–	100 to 200%	+++ (≥350)	–	–	–	–	COc1ccc(C(F)(F)F)cc1CN[C@H]1[C@H](C(C)(C)OC)[C@@H](C(=O)O)N(C(=O)C2CCCCC2)[C@H]1c1cccnc1OC [II-436]
5.00 to 6.00	5.00 to 6.00	++ (≥150 and <350)	–	< 100%	–	–	–	–	–	COc1ccc(C(F)(F)F)cc1CN[C@@H]1[C@@H](C(C)(C)C)[C@H](C(=O)O)N(C(=O)C2CCCCC2)[C@H]1c1ccccc1 [III-199]
5.00 to 6.00	5.00 to 6.00	–	–	< 100%	++ (≥150 and <350)	–	–	–	–	COc1ncc(C(F)(F)F)cc1CN[C@H]1[C@H](C(C)(C)C)[C@@H](C(=O)O)N(C(=O)C2Cc3cccc(C)c3O2)[C@H]1c1ccccc1 (stereo partly shown) [II-446]
5.00 to 6.00	5.00 to 6.00	–	–	100 to 200%	+++ (≥350)	–	–	–	–	COc1ccc(OC(F)(F)F)cc1CN[C@H]1[C@H](C(C)(C)C)[C@@H](C(=O)O)N(C(=O)C2CCCCC2)[C@H]1c1cccnc1OC [II-524]
5.00 to 6.00	> 6.00	+++ (≥350)	–	100 to 200%	–	–	–	–	–	COc1ncc(C2CCC2)cc1CN[C@H]1[C@H](C(C)(C)C)[C@@H](C(=O)O)N(C(=O)C2CCCCC2C)[C@H]1c1ccccc1 (stereo partly shown) [III-208]
< 5.00	5.00 to 6.00	++ (≥150 and <350)	–	< 100%	–	–	–	–	–	CC(C)(C)[C@H]1[C@H](NCc2ccc(C(F)(F)F)cc2)[C@H](c2ccccc2)N(C(=O)C2CCCCC2)[C@@H]1C(=O)O [III-138]
–	–	–	–	–	–	> 6.00	> 6.00	+++ (≥350)	> 200%	COc1ccc(C2CC3CCC2C3)cc1CN[C@H]1[C@H](C(C)(C)C)[C@@H](C(=O)O)N(C(=O)C2CCCCC2)[C@H]1c1ccccc1 (stereo partly shown) [II-194]
–	–	–	–	–	–	5.00 to 6.00	5.00 to 6.00	+++ (≥350)	> 200%	COc1ccc(C(C)(C)C)cc1CN[C@H]1[C@H](C(C)(C)C)[C@@H](C(=O)O)N(C(=O)CC2=CCCC2)[C@H]1c1ccccc1 [II-234]
5.00 to 6.00	5.00 to 6.00	–	–	> 200%	+++ (≥350)	–	–	–	–	COc1ccc(C2(C(F)(F)F)CC2)cc1CN[C@H]1[C@H](C(C)(C)C)[C@@H](C(=O)O)N(C(=O)OC(C)C)[C@H]1c1cccnc1N(C)C [II-559]
> 6.00	> 6.00	–	–	> 200%	+++ (≥350)	–	–	–	–	COc1ccc(C2(C)CCC2)cc1CN[C@H]1[C@H](C(C)(C)C)[C@@H](C(=O)O)N(C(=O)C2CCCCC2)[C@H]1c1ccccc1 [II-462]
5.00 to 6.00	> 6.00	–	–	100 to 200%	+++ (≥350)	–	–	–	–	COc1ccc(C(C)(C)C)cc1CN[C@H]1[C@H](C(C)(C)C)[C@@H](C(=O)O)N(C(=O)C2CCC(C(F)(F)F)CC2)[C@H]1c1ccccc1 (stereo partly shown) [II-374]
–	–	–	–	–	–	5.00 to 6.00	5.00 to 6.00	++ (≥150 and <350)	< 100%	COc1ccc(Cl)cc1CN[C@@H]1[C@@H](C(C)(C)C)[C@H](C(=O)O)N(C(=O)C2COCCO2)[C@@H]1c1ccccc1 (mixture of isomers) [II-86]
< 5.00	5.00 to 6.00	–	–	< 100%	++ (≥150 and <350)	–	–	–	–	Cc1cc(C(F)(F)F)cc(N[C@@H]2[C@@H](C(C)(C)C)[C@H](C(=O)NS(=O)(=O)C(C)(C)C)N(C(=O)C3CCCCC3)[C@@H]2c2ccccc2)n1 (racemic) [III-50]
> 6.00	> 6.00	–	–	> 200%	+++ (≥350)	–	–	–	–	COc1ccc2c(c1)CCC2C(=O)N1[C@H](C(=O)O)[C@@H](C(C)(C)C)[C@H](NCc2cc(C(C)(C)C)ccc2OC)[C@@H]1c1ccccc1 (stereo partly shown) [II-365]
5.00 to 6.00	5.00 to 6.00	–	–	100 to 200%	+++ (≥350)	–	–	–	–	CC#CCOC(=O)N1[C@H](C(=O)O)[C@@H](C(C)(C)C)[C@H](NCc2cc(C(C)(C)C)ccc2OC)[C@@H]1c1ccccc1 [II-389]
–	–	–	–	–	–	5.00 to 6.00	5.00 to 6.00	++ (≥150 and <350)	< 100%	CC(C)(C)[C@H]1[C@H](NCc2cc(Cl)cc(Cl)c2)[C@H](c2ccccc2)N(C(=O)C2CCCCC2)[C@@H]1C(=O)O [II-111]
